Measurements taken from ChEMBL document CHEMBL1201862, “PubChem BioAssay data set” (2004).
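All cell lines were grown in 96-well plates and treated with compound for 48 hours. The concentration for 50% growth inhibition is given as GI50.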 Activity calls are given as the source filed them. No stated cut-off is given here; in the data, active = GI50 up to about 1.1 µM and inactive = higher.

How the values were obtained:
Assay in all cases: inhibition of tumour cell growth, NCI panel, 48 h
NCI-H522 = test system: NCI-H522
IGROV-1 = test system: IGROV-1
SK-MEL-5 = test system: SK-MEL-5
T47D = test system: T47D
RPMI-8226 = test system: RPMI-8226
COLO 205 = test system: COLO 205
MDA-N = test system: MDA-N
SR = test system: SR
HT-29 = test system: HT-29
OVCAR-5 = test system: OVCAR-5
786-0 = test system: 786-0
SNB-75 = test system: SNB-75
OVCAR-4 = test system: OVCAR-4
UACC-257 = test system: UACC-257
SW-620 = test system: SW-620
Malme-3M = test system: Malme-3M
EKVX = test system: EKVX
SF-295 = test system: SF-295
OVCAR-3 = test system: OVCAR-3
A498 = test system: A498

Row | SMILES | GI50 (NCI-H522) | GI50 (IGROV-1) | GI50 (SK-MEL-5) | GI50 (T47D) | GI50 (RPMI-8226) | GI50 (COLO 205) | GI50 (MDA-N) | GI50 (SR) | GI50 (HT-29) | GI50 (OVCAR-5) | GI50 (786-0) | GI50 (SNB-75) | GI50 (OVCAR-4) | GI50 (UACC-257) | GI50 (SW-620) | GI50 (Malme-3M) | GI50 (EKVX) | GI50 (SF-295) | GI50 (OVCAR-3) | GI50 (A498)
1 | Cc1ccc(S(=O)(=O)NC(=O)NS(=O)(=O)O)cc1 | > 100 µM (inactive) | > 100 µM (inactive) | > 100 µM (inactive) | > 100 µM (inactive) | 0.0771 µM (active) | > 100 µM (inactive) | > 100 µM (inactive) | < 0.01 µM (active) | > 100 µM (inactive) | > 100 µM (inactive) | > 100 µM (inactive) | > 100 µM (inactive) | > 100 µM (inactive) | > 100 µM (inactive) | > 100 µM (inactive) | > 100 µM (inactive) | – | – | – | –
2 | CC(=O)N1C(Nc2ccccn2)CCN1c1ccccc1 (stereo not given) | > 10 µM (inactive) | > 10 µM (inactive) | > 10 µM (inactive) | > 10 µM (inactive) | > 10 µM (inactive) | > 10 µM (inactive) | > 10 µM (inactive) | > 10 µM (inactive) | > 10 µM (inactive) | > 10 µM (inactive) | > 10 µM (inactive) | > 10 µM (inactive) | > 10 µM (inactive) | > 10 µM (inactive) | > 10 µM (inactive) | > 10 µM (inactive) | > 10 µM (inactive) | > 10 µM (inactive) | > 10 µM (inactive) | –
3 | CN(C)CCNC(=O)c1cccc2c1Oc1cccc([N+](=O)[O-])c1O2 | 16.1 µM (inactive) | 18.9 µM (inactive) | 19.1 µM (inactive) | 14.8 µM (inactive) | – | 21.6 µM (inactive) | 17.7 µM (inactive) | 21.1 µM (inactive) | 15.2 µM (inactive) | 20.5 µM (inactive) | 19.2 µM (inactive) | 13.9 µM (inactive) | – | 18.5 µM (inactive) | 19.3 µM (inactive) | 14.1 µM (inactive) | – | 17.5 µM (inactive) | 20.8 µM (inactive) | 15 µM (inactive)
4 | CN(C)C(=O)c1nnsc1NN=O | > 100 µM (inactive) | > 100 µM (inactive) | > 100 µM (inactive) | > 100 µM (inactive) | > 100 µM (inactive) | > 100 µM (inactive) | > 100 µM (inactive) | > 100 µM (inactive) | > 100 µM (inactive) | > 100 µM (inactive) | > 100 µM (inactive) | > 100 µM (inactive) | > 100 µM (inactive) | > 100 µM (inactive) | > 100 µM (inactive) | > 100 µM (inactive) | > 100 µM (inactive) | > 100 µM (inactive) | 87.7 µM (inactive) | –
5 | NC1OC(COC(=O)c2ccccc2)C(O)C(OC(=O)c2ccccc2)C1OC(=O)c1ccccc1 (stereo not given) | 23.9 µM (inactive) | 16.9 µM (inactive) | 14.4 µM (inactive) | 35.5 µM (inactive) | > 100 µM (inactive) | 22.1 µM (inactive) | 22.3 µM (inactive) | > 10 µM (inactive) | 17.3 µM (inactive) | 24.3 µM (inactive) | 15.5 µM (inactive) | 18.6 µM (inactive) | 35.5 µM (inactive) | 18.1 µM (inactive) | 19 µM (inactive) | 16.7 µM (inactive) | 21.3 µM (inactive) | 17.2 µM (inactive) | 25.2 µM (inactive) | –
6 | Cc1cccc2c1Oc1cc(Cl)ccc1C2NC(=O)CCN1CCOCC1 (stereo not given) | > 100 µM (inactive) | > 100 µM (inactive) | > 100 µM (inactive) | > 100 µM (inactive) | – | > 100 µM (inactive) | > 100 µM (inactive) | > 100 µM (inactive) | 61.8 µM (inactive) | > 100 µM (inactive) | > 100 µM (inactive) | 21.8 µM (inactive) | > 100 µM (inactive) | > 100 µM (inactive) | > 100 µM (inactive) | – | > 100 µM (inactive) | > 100 µM (inactive) | > 100 µM (inactive) | –
7 | c1ccc(CNCCCCNCCCNCc2ccccc2)cc1 | 15.2 µM (inactive) | 13.1 µM (inactive) | 17.6 µM (inactive) | > 100 µM (inactive) | 27.7 µM (inactive) | 13.6 µM (inactive) | 12.9 µM (inactive) | 17.6 µM (inactive) | 15.2 µM (inactive) | 30.2 µM (inactive) | 17.2 µM (inactive) | 19.4 µM (inactive) | 17.8 µM (inactive) | 17.3 µM (inactive) | 15.8 µM (inactive) | 15.5 µM (inactive) | 25.6 µM (inactive) | > 100 µM (inactive) | 20 µM (inactive) | –
8 | COc1cc(N2C(=O)C(=O)C3(CCCCC3)C2=O)cc(OC)c1OC | > 100 µM (inactive) | – | > 100 µM (inactive) | > 100 µM (inactive) | > 100 µM (inactive) | > 100 µM (inactive) | > 100 µM (inactive) | > 100 µM (inactive) | > 100 µM (inactive) | > 100 µM (inactive) | > 100 µM (inactive) | > 100 µM (inactive) | > 100 µM (inactive) | > 100 µM (inactive) | > 100 µM (inactive) | > 100 µM (inactive) | > 100 µM (inactive) | > 100 µM (inactive) | > 100 µM (inactive) | –
9 | CC(NC(=O)C(C)C(=O)NCc1ccc(C(F)(F)F)cc1)C(N)=O (stereo not given) | 34.9 µM (inactive) | > 100 µM (inactive) | > 100 µM (inactive) | > 100 µM (inactive) | > 100 µM (inactive) | > 100 µM (inactive) | > 100 µM (inactive) | > 100 µM (inactive) | > 100 µM (inactive) | > 100 µM (inactive) | > 100 µM (inactive) | 48.1 µM (inactive) | – | > 100 µM (inactive) | > 100 µM (inactive) | 27.9 µM (inactive) | > 100 µM (inactive) | > 100 µM (inactive) | – | –
10 | CC1(C)N=C(/C(Cl)=[N+](/[O-])C(=O)c2ccc(F)cc2)C(C)(C)N1O | – | 19.5 µM (inactive) | 16.4 µM (inactive) | 25.7 µM (inactive) | 14.2 µM (inactive) | 18.5 µM (inactive) | 16.4 µM (inactive) | 4.16 µM (inactive) | 19.9 µM (inactive) | 18 µM (inactive) | 14.6 µM (inactive) | 16.6 µM (inactive) | 17.9 µM (inactive) | 17.1 µM (inactive) | 15.1 µM (inactive) | 16.3 µM (inactive) | 20.1 µM (inactive) | 31.8 µM (inactive) | 17 µM (inactive) | –
11 | Clc1cccc(-c2sc(-c3ccsc3)cc2Cc2ccsc2)c1 | – | > 10 µM (inactive) | > 10 µM (inactive) | 8 µM (inactive) | > 10 µM (inactive) | > 10 µM (inactive) | > 10 µM (inactive) | > 10 µM (inactive) | > 10 µM (inactive) | – | > 10 µM (inactive) | > 10 µM (inactive) | > 10 µM (inactive) | > 10 µM (inactive) | > 10 µM (inactive) | > 10 µM (inactive) | > 10 µM (inactive) | > 10 µM (inactive) | – | –
